Experimental data taken from patent US20240174622A1, “COMPOUND AND RADIOACTIVE LABELING COMPOUND” (NIHON MEDI-PHYSICS CO., LTD., priority 2021, published 2024).

Key:
LNCaP tumor = test: SPECT/CT using LNCaP tumor-transplanted mouse; type: in vivo
Description: (§1) LNCaP tumor-implanted mice prepared by the method described above were administered saline solutions (1.9 to 3.0 MBq, 150 μL) of [^111In]In-PSMA-DA1 or [^111In]In-PSMA-DB from the tail vein. SPECT/CT was performed 24 and 48 hours after administration with FX3300 pre-clinical imaging system, which is manufactured by Gamma Medica-Ideas. Imaging was performed using a pinhole collimator with a diameter of 1.0 mm at a rotation radius of 35 mm, a projection time of 70 seconds, and the number of projections of 32 times under isoflurane anesthesia. After SPECT, CT (Tube voltage: 60 kV, Tube current: 350 μA) was performed. Image reconstruction was performed on the projection data of SPECT through three-dimensional ordered subset expectation maximization method (8 subsets, 5 iterations).
In the figure, the part indicated by the arrow is the location of the tumor, and the part indicated by the circle is the location of the kidney. The higher the SUV, the higher the radioactivity accumulation. […]
as §1, with “SPECT/CT” for “LNCaP tumor-implanted mice prepared by the method described above were administered saline solutions (1.9 to 3.0 MBq, 150 μL) of [^111In]In-PSMA-DA1 or [^111In]In-PSMA-DB from the tail vein. SPECT/CT”, “24, 48,” for “24”, “96” for “48”

[1] = system: plasma albumin (human plasma); test: Evaluation of binding to albumin (human plasma); conditions: for radioactivity in the eluate (in words): left to stand in human plasma
Description: (§2) A PBS solution (37 kBq, 50 μL) of [^111In]In-PSMA-DA1 or [^111In]In-PSMA-DB was added to 200 μL of PBS, mouse plasma, human plasma, or a human serum albumin (HSA) solution (45 mg/mL) in PBS, respectively, and the mixtures were allowed to stand at 37° C. for 10 minutes. Thereafter, the reaction liquids were added to a spin column ([…]; manufactured by Cytiva), and centrifuged at 1500×g at 4° C. for 2 minutes. After separation, the radioactivity for each of the column and the eluate was measured with a gamma counter.
(§3) When a compound to be evaluated binds to albumin to form a composite, the compound passes through the column because of the increased molecular size.
(§4) As in Example 1-1 described above, PBS, mouse plasma, human plasma, and human albumin were used to evaluate binding to albumin. Evaluation was carried out by the same experimental procedure and statistical method as in Example 1-1, except that a PBS solution (37 kBq, 50 μL) of [^111In]In-PtDA was used.
(§5) Thereafter, the reaction liquid was added to a spin column (Sephadex G-50; manufactured by Cytiva), and centrifuged at 1500×g at 4° C. for 2 minutes. After separation, the radioactivity of the column and the eluate was measured with a gamma counter.

[2] = target: T1, plasma albumin (mouse plasma) (Mus musculus, UniProt P07724); test: Evaluation of binding to albumin (mouse plasma); conditions: for radioactivity in the eluate (in words): left to stand in mouse plasma
T1 construct: from tissue; host or cells: mouse plasma
Description: as §2, §3, §4, §5

[3] = Evaluation of distribution coefficient (1-octanol/PBS); type: physicochemical; conditions: 1-octanol / PBS pH 7.4
Description: [^111In]In-PtDA (111 kBq) was added to a mixture of PBS (pH 7.4, 3 mL) and 1-octanol (3 mL), and the mixture was dispersed by vortexing for 2 minutes and then centrifuged at 4000×g for 5 minutes. 1 mL was recovered respectively from the 1-octanol layer and the PBS layer, and the radioactivity of each layer was measured with a gamma counter (n=3).
As the calculation formula, “(Distribution coefficient)=Log10[(radioactivity of 1-octanol layer [kBq])/(radioactivity of PBS layer [kBq])]” was used.

PC-3 tumor = test: SPECT/CT, PC-3 tumor in mouse transplanted with LNCaP and PC-3; type: in vivo; conditions: 24 (and 48) hours after administration
Description: LNCaP cells (1.0×10^7 cells/mouse) were suspended in a mixture of PBS and Matrigel (1:1, 150 μL) and subcutaneously transplanted to the right shoulder of a male CB17/IcrJcl-Prkdc^scid mouse kept in the same manner as in Example 1-1 under isoflurane anesthesia. In addition, a suspension of PC-3 cells (1.0×10^7 cells/mouse) in a mixture of PBS and Matrigel (1:1, 150 μL) was subcutaneously transplanted into the left shoulder of the same mouse under isoflurane anesthesia. Thereafter, the mouse was kept for 40 to 60 days. In this way, a tumor-transplanted mouse in which LNCaP cells and PC-3 cells were simultaneously transplanted into one mouse was obtained. The tumor-transplanted mouse was then administered saline solution (2.7 MBq, 100 μL) of [^111In]In-PtDA from the tail vein. SPECT/CT was performed 24 and 48 hours after administration with FX3300 pre-clinical imaging system, which is manufactured by Gamma Medica-Ideas. Imaging was performed using a pinhole collimator with a diameter of 1.0 mm at a rotation radius of 35 mm, a projection time of 70 seconds, and the number of projections of 32 times under isoflurane anesthesia. After SPECT, CT (Tube voltage: 60 kV, Tube current: 350 μA) was performed. Image reconstruction was performed on the projection data of SPECT through three-dimensional ordered subset expectation maximization method (8 subsets, 5 iterations). […]

[4] = 24 (and 48) hours after administration

T1 sequence (P07724 25-608): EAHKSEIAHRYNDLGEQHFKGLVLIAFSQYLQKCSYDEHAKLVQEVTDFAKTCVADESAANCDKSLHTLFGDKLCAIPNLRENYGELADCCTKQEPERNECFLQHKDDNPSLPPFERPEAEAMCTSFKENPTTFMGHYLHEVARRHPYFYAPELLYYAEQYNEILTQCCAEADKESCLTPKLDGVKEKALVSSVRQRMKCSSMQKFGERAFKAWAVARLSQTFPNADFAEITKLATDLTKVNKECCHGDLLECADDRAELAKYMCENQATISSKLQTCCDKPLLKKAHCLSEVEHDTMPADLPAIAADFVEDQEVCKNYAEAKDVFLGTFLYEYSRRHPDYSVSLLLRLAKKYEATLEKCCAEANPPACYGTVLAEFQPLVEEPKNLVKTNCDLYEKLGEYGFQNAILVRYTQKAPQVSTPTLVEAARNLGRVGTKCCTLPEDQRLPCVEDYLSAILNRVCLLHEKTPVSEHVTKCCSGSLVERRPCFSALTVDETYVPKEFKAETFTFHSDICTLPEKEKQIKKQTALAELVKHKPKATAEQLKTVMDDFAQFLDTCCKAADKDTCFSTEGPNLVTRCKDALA

## O=C([O-])CN1CCN(C(CCC(=O)NCCCC[C@H](NC(=O)N[C@@H](CCC(=O)O)C(=O)O)C(=O)O)C(=O)[O-])CCN(CC(=O)[O-])CCN(C(CCC(=O)Nc2ccccc2)C(=O)[O-])CC1.[111In+3] (stereo partly drawn) [[^111In]In-PSMA-DB, reference compound]
LNCaP tumor; [4]
  radioactivity accumulation at the LNCaP tumor in SPECT/CT: lower than at the kidney

## O=C(O)CC[C@H](NC(=O)N[C@@H](CCCCNC(=O)[C@H](Cc1ccc2ccccc2c1)NC(=O)[C@H]1CC[C@H](CNC(=O)CCC(C(=O)O)N2CCN(CC(=O)O)CCN(C(CCC(=O)N[C@@H](CCCCNC(=O)CCCc3ccc(I)cc3)C(=O)O)C(=O)O)CCN(CC(=O)O)CC2)CC1)C(=O)O)C(=O)O (stereo partly drawn) [[^111In]In-PSMA-NAT-DA1, metal not drawn]
[1]
  radioactivity in the eluate (in words): significantly high
[2]
  radioactivity in the eluate (in words): significantly high
LNCaP tumor; [4]
  radioactivity accumulation at the LNCaP tumor in SPECT/CT: significant radioactivity accumulation
  radioactivity accumulation at the kidney in SPECT/CT: also observed
LNCaP tumor; 96 hours after administration
  radioactivity accumulation at the kidney in SPECT/CT: hardly observed

## O=C([O-])CN1CCN(C(CCC(=O)NCCCC[C@H](NC(=O)N[C@@H](CCC(=O)O)C(=O)O)C(=O)O)C(=O)[O-])CCN(CC(=O)[O-])CCN(C(CCC(=O)N[C@@H](CCCCNC(=O)CCCc2ccc(I)cc2)C(=O)O)C(=O)[O-])CC1.[111In+3] (stereo partly drawn) [[^111In]In-PSMA-DA1]
[1]
  radioactivity in the eluate (in words): significantly higher
[2]
  radioactivity in the eluate (in words): significantly higher
LNCaP tumor; [4]
  radioactivity accumulation at the LNCaP tumor in SPECT/CT: significant radioactivity accumulation
  radioactivity accumulation at the kidney in SPECT/CT: High radioactivity accumulation

## O=C([O-])CN1CCN(C(CCC(=O)NCCC(=O)N2Cc3ccccc3-c3c(nnn3CCOCCOCCOCCOCCC(=O)NCCCC[C@H](NC(=O)N[C@@H](CCC(=O)O)C(=O)O)C(=O)O)-c3ccccc32)C(=O)[O-])CCN(CC(=O)[O-])CCN(C(CCC(=O)N[C@@H](CCCCNC(=O)CCCc2ccc(I)cc2)C(=O)O)C(=O)[O-])CC1.[111In+3] (stereo partly drawn) [[^111In]In-PtDA]
[1]; human plasma
  radioactivity in the eluate: 79.0%
[3]
  Log P (distribution coefficient): −3.08±0.02
PC-3 tumor
  radioactivity signal in the PC-3 tumor in SPECT/CT: almost no radioactive signal
[2]; mouse plasma
  radioactivity in the eluate: 67.2%
LNCaP tumor; [4]
  radioactivity accumulation at the LNCaP tumor in SPECT/CT: high radioactivity accumulation

## O=C([O-])CN(Cc1cccc(C(=O)[O-])n1)C[C@H](Cc1ccc(NC(=O)[C@H](CCCCNC(=O)CCC(=O)NCCCC[C@H](NC(=O)N[C@@H](CCC(=O)O)C(=O)O)C(=O)O)NC(=O)CCCc2ccc(I)cc2)cc1)N(CC(=O)[O-])Cc1cccc(C(=O)[O-])n1.[111In+3] [[^111In]In-Octapa-2]
PC-3 tumor
  radioactivity signal in the PC-3 tumor in SPECT/CT: hardly observed
LNCaP tumor; [4]
  radioactivity accumulation at the LNCaP tumor in SPECT/CT: high radioactivity accumulation
  radioactivity accumulation at the kidney in SPECT/CT: also observed
